This data set in a line: recombinant UMI read abundance after kanamycin selection (control-corrected) (log10(CPM+1)); higher = more efficient recombination; extreme values may be limits of the assay; sequences stand for … in AGTGCAGAGAAAATCGGCCAGTTTTCTCTGCCTGCAGTCCGCATGCCGTGGGACCCCTTGGGTTCTAACCTGTTGCCTAGATTTATGCAGCGGACTGCCTTTCTCCCAAAGTGATAAACCGG…AGGTTGGTTTCACT; site = the 11-nt donor. An outline of the steps:
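Counts of recombinant UMIs were reported as log10(CPM+1). Before that, they were converted to CPM, averaged over replicates and scaled using control-derived factors. They came from PCR across the donor–target junction after Escherichia coli carrying the pair library and target plasmid was plated on IPTG (0.07 mM) plus kanamycin, or unselected, in two replicates each.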
For “TGTCGTCCATGGACCGGTTTTCCCGGTAATCCGTATTTGAG (site TGTCGTCCTCT)”, the “recombinant UMI read abundance (log10)” value was determined as 0.0062.

Regarding “TGTGACGCATGGACCGGTTTTCCCGGTAATCCGTATTTGTG (site TGTGACGCTCA)”, the “recombinant UMI read abundance (log10)” value is 0.239.

Regarding “TGTGATGCATGGACCGGTTTTCCCGGTAATCCGTATTTGAC (site TGTGATGCTGT)”, the “recombinant UMI read abundance (log10)” value turned out to be 1.65.

“TGTGCTGCATGGACCGGTTTTCCCGGTAATCCGTATTTGTA (site TGTGCTGCTTA)”: the “recombinant UMI read abundance (log10)” value is 0.0197.

Regarding “TGTGGCTCATGGACCGGTTTTCCCGGTAATCCGTATTTGCT (site TGTGGCTCTAG)”, the “recombinant UMI read abundance (log10)” value came to 1.33.

In the case of “TGTGTGACATGGACCGGTTTTCCCGGTAATCCGTATTTGTC (site TGTGTGACTGA)”, the “recombinant UMI read abundance (log10)” value was determined as 0.

Consider “TGTTAACCATGGACCGGTTTTCCCGGTAATCCGTATTTGCT (site TGTTAACCTAG)”, for which the “recombinant UMI read abundance (log10)” value was determined as 0.

For “TGTTCACCATGGACCGGTTTTCCCGGTAATCCGTATTTGTA (site TGTTCACCTTA)”, the “recombinant UMI read abundance (log10)” value is 0.00651.

With “TGTTCACCATGGACCGGTTTTCCCGGTAATCCGTATTTGTA (site TGTTCCCCTTA)”, the “recombinant UMI read abundance (log10)” value is 0.104.

As to “TGTTCACCATGGACCGGTTTTCCCGGTAATCCGTATTTGTA (site TGTTCGCCTTA)”, the “recombinant UMI read abundance (log10)” value turned out to be 0.00766.

For the sequence “TGTTCACCATGGACCGGTTTTCCCGGTAATCCGTATTTGTA (site TGTTCTCCTTA)”, the “recombinant UMI read abundance (log10)” value is 0.00688.

Turning to “TGTTCCCCATGGACCGGTTTTCCCGGTAATCCGTATTTGAA (site TGTTCCCCTTA)”, the “recombinant UMI read abundance (log10)” value was determined as 0.0134.

As to “TGTTCCCCATGGACCGGTTTTCCCGGTAATCCGTATTTGAA (site TGTTCCCCTTC)”, the “recombinant UMI read abundance (log10)” value came to 0.011.

On to “TGTTCCCCATGGACCGGTTTTCCCGGTAATCCGTATTTGAA (site TGTTCCCCTTG)”, for which the “recombinant UMI read abundance (log10)” value was found to be 0.

For the sequence “TGTTCCCCATGGACCGGTTTTCCCGGTAATCCGTATTTGAA (site TGTTCCCCTTT)”, the “recombinant UMI read abundance (log10)” value was 0.0201.

As to “TGTTCCCCATGGACCGGTTTTCCCGGTAATCCGTATTTGGA (site TGTTCCCCTTA)”, the “recombinant UMI read abundance (log10)” value was determined as 0.0182.

As for “TGTTCCCCATGGACCGGTTTTCCCGGTAATCCGTATTTGGA (site TGTTCCCCTTC)”, the “recombinant UMI read abundance (log10)” value was found to be 0.128.

Regarding “TGTTCCCCATGGACCGGTTTTCCCGGTAATCCGTATTTGGA (site TGTTCCCCTTG)”, the “recombinant UMI read abundance (log10)” value turned out to be 0.00301.

“TGTTCCCCATGGACCGGTTTTCCCGGTAATCCGTATTTGGA (site TGTTCCCCTTT)”: the “recombinant UMI read abundance (log10)” value came to 0.02.

As for “TGTTCCCCATGGACCGGTTTTCCCGGTAATCCGTATTTGTC (site TGTTCCCCTAA)”, the “recombinant UMI read abundance (log10)” value was found to be 0.0126.

For the sequence “TGTTCCCCATGGACCGGTTTTCCCGGTAATCCGTATTTGTC (site TGTTCCCCTCA)”, the “recombinant UMI read abundance (log10)” value turned out to be 0.00896.

For the sequence “TGTTCCCCATGGACCGGTTTTCCCGGTAATCCGTATTTGTC (site TGTTCCCCTGA)”, the “recombinant UMI read abundance (log10)” value came to 1.16.

For “TGTTCCCCATGGACCGGTTTTCCCGGTAATCCGTATTTGTC (site TGTTCCCCTTA)”, the “recombinant UMI read abundance (log10)” value stood at 0.0152.

Take “TGTTCCTCATGGACCGGTTTTCCCGGTAATCCGTATTTGTC (site TGTTCCTCTGA)”: the “recombinant UMI read abundance (log10)” value amounted to 0.553.

For the sequence “TGTTCGGCATGGACCGGTTTTCCCGGTAATCCGTATTTGAC (site TGTTCGGCTGT)”, the “recombinant UMI read abundance (log10)” value worked out at 0.323.

As to “TGTTCTTCATGGACCGGTTTTCCCGGTAATCCGTATTTGCC (site TGTTCTTCTGG)”, the “recombinant UMI read abundance (log10)” value amounted to 1.21.

On to “TGTTGATCATGGACCGGTTTTCCCGGTAATCCGTATTTGAG (site TGTTGATCTCT)”, for which the “recombinant UMI read abundance (log10)” value came out at 1.22.

As for “TGTTTGGCATGGACCGGTTTTCCCGGTAATCCGTATTTGTG (site TATTTGGCTCA)”, the “recombinant UMI read abundance (log10)” value is 0.0286.

Turning to “TGTTTGGCATGGACCGGTTTTCCCGGTAATCCGTATTTGTG (site TCTTTGGCTCA)”, the “recombinant UMI read abundance (log10)” value stood at 0.00613.

Consider “TGTTTGGCATGGACCGGTTTTCCCGGTAATCCGTATTTGTG (site TGTTTGGCTCA)”, for which the “recombinant UMI read abundance (log10)” value came out at 0.161.

Consider “TGTTTGGCATGGACCGGTTTTCCCGGTAATCCGTATTTGTG (site TTTTTGGCTCA)”, for which the “recombinant UMI read abundance (log10)” value came out at 0.0036.

As to “TTAAATCCATGGACCGGTTTTCCCGGTAATCCGTATTTGGT (site TTAAATCCTAC)”, the “recombinant UMI read abundance (log10)” value came out at 0.0199.

Turning to “TTAATACCATGGACCGGTTTTCCCGGTAATCCGTATTTGAG (site TTAATACCTCT)”, the “recombinant UMI read abundance (log10)” value amounted to 0.0468.

For the sequence “TTAATTTCATGGACCGGTTTTCCCGGTAATCCGTATTTGCA (site TTAATTTCTTG)”, the “recombinant UMI read abundance (log10)” value worked out at 0.69.

As to “TTACGTCCATGGACCGGTTTTCCCGGTAATCCGTATTTGCA (site TTACGTCCTTG)”, the “recombinant UMI read abundance (log10)” value came out at 0.977.

Regarding “TTACTACCATGGACCGGTTTTCCCGGTAATCCGTATTTGCG (site TTACTACCTCG)”, the “recombinant UMI read abundance (log10)” value turned out to be 0.0128.

As for “TTAGAACCATGGACCGGTTTTCCCGGTAATCCGTATTTGCA (site TTAGAACCTTG)”, the “recombinant UMI read abundance (log10)” value was 0.

As to “TTAGCCGCATGGACCGGTTTTCCCGGTAATCCGTATTTGAC (site TTAGCCGCTGT)”, the “recombinant UMI read abundance (log10)” value was found to be 2.72.

As for “TTAGGATCATGGACCGGTTTTCCCGGTAATCCGTATTTGAT (site TTAGGATCTAT)”, the “recombinant UMI read abundance (log10)” value was determined as 2.58.

On to “TTAGTTCCATGGACCGGTTTTCCCGGTAATCCGTATTTGTT (site TTAGTTCCTAA)”, for which the “recombinant UMI read abundance (log10)” value amounted to 0.183.

With “TTAGTTGCATGGACCGGTTTTCCCGGTAATCCGTATTTGTG (site TTAGATGCTCA)”, the “recombinant UMI read abundance (log10)” value came to 0.0164.

Take “TTAGTTGCATGGACCGGTTTTCCCGGTAATCCGTATTTGTG (site TTAGCTGCTCA)”: the “recombinant UMI read abundance (log10)” value stood at 0.0133.

On to “TTAGTTGCATGGACCGGTTTTCCCGGTAATCCGTATTTGTG (site TTAGGTGCTCA)”, for which the “recombinant UMI read abundance (log10)” value is 0.0142.

Take “TTAGTTGCATGGACCGGTTTTCCCGGTAATCCGTATTTGTG (site TTAGTTGCTCA)”: the “recombinant UMI read abundance (log10)” value is 1.15.

Turning to “TTATAGGCATGGACCGGTTTTCCCGGTAATCCGTATTTGGA (site TTATAGGCTTC)”, the “recombinant UMI read abundance (log10)” value came to 0.419.

With “TTATGAGCATGGACCGGTTTTCCCGGTAATCCGTATTTGTC (site TTATGAGCTGA)”, the “recombinant UMI read abundance (log10)” value was 2.45.

As to “TTATGTGCATGGACCGGTTTTCCCGGTAATCCGTATTTGCT (site TTATGTGCTAG)”, the “recombinant UMI read abundance (log10)” value amounted to 2.36.

Take “TTATTACCATGGACCGGTTTTCCCGGTAATCCGTATTTGAG (site TTATTACCTCT)”: the “recombinant UMI read abundance (log10)” value amounted to 0.00691.

For the sequence “TTATTTGCATGGACCGGTTTTCCCGGTAATCCGTATTTGTA (site TTATTTGCTTA)”, the “recombinant UMI read abundance (log10)” value came to 0.103.

Turning to “TTCAACTCATGGACCGGTTTTCCCGGTAATCCGTATTTGAC (site TTCAACTCTGT)”, the “recombinant UMI read abundance (log10)” value was determined as 0.

For the sequence “TTCAATTCATGGACCGGTTTTCCCGGTAATCCGTATTTGGG (site TTCAATTCTCC)”, the “recombinant UMI read abundance (log10)” value worked out at 0.

As to “TTCCACCCATGGACCGGTTTTCCCGGTAATCCGTATTTGTA (site TTCCACCCTTA)”, the “recombinant UMI read abundance (log10)” value came out at 0.00477.

Take “TTCCAGGCATGGACCGGTTTTCCCGGTAATCCGTATTTGAG (site TTCCAGGCTCT)”: the “recombinant UMI read abundance (log10)” value amounted to 0.0112.

For “TTCCCGCCATGGACCGGTTTTCCCGGTAATCCGTATTTGAA (site TTCCCGCCTTT)”, the “recombinant UMI read abundance (log10)” value was determined as 0.0206.

Consider “TTCCCTTCATGGACCGGTTTTCCCGGTAATCCGTATTTGTA (site TTCCCTTCTTA)”, for which the “recombinant UMI read abundance (log10)” value is 0.

For “TTCCGAACATGGACCGGTTTTCCCGGTAATCCGTATTTGGT (site TTCCGAACTAC)”, the “recombinant UMI read abundance (log10)” value came out at 0.00692.

As for “TTCCTGGCATGGACCGGTTTTCCCGGTAATCCGTATTTGAG (site TTCCTGGCTCT)”, the “recombinant UMI read abundance (log10)” value came to 0.00387.

With “TTCCTGTCATGGACCGGTTTTCCCGGTAATCCGTATTTGAA (site TTCCTGTCTTT)”, the “recombinant UMI read abundance (log10)” value is 0.0685.

In the case of “TTCGCCACATGGACCGGTTTTCCCGGTAATCCGTATTTGAG (site TTCGCCACTCT)”, the “recombinant UMI read abundance (log10)” value was 0.

As to “TTCGCTACATGGACCGGTTTTCCCGGTAATCCGTATTTGGC (site TTCGCTACTGC)”, the “recombinant UMI read abundance (log10)” value worked out at 0.

Turning to “TTCGGATCATGGACCGGTTTTCCCGGTAATCCGTATTTGCT (site TTCGGATCTAG)”, the “recombinant UMI read abundance (log10)” value was determined as 0.

Take “TTCGGGCCATGGACCGGTTTTCCCGGTAATCCGTATTTGCC (site TTCGGGCCTGG)”: the “recombinant UMI read abundance (log10)” value was 0.

Turning to “TTCGTATCATGGACCGGTTTTCCCGGTAATCCGTATTTGAC (site CTAGTATCTGT)”, the “recombinant UMI read abundance (log10)” value amounted to 0.

“TTCGTATCATGGACCGGTTTTCCCGGTAATCCGTATTTGAC (site TTCGTATCTGT)”: the “recombinant UMI read abundance (log10)” value came to 0.

Take “TTCTGAGCATGGACCGGTTTTCCCGGTAATCCGTATTTGCT (site TTCTGAGCTAG)”: the “recombinant UMI read abundance (log10)” value came to 0.802.

With “TTCTTCGCATGGACCGGTTTTCCCGGTAATCCGTATTTGCG (site TTCTTCGCTCG)”, the “recombinant UMI read abundance (log10)” value is 0.00387.

In the case of “TTGAATCCATGGACCGGTTTTCCCGGTAATCCGTATTTGTT (site CGGAATCCTAA)”, the “recombinant UMI read abundance (log10)” value came out at 0.

Turning to “TTGAATCCATGGACCGGTTTTCCCGGTAATCCGTATTTGTT (site TTGAATCCTAA)”, the “recombinant UMI read abundance (log10)” value worked out at 0.901.

The values are drawn from the supplement of paper PMC11208160.
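Also: IS621 bridge recombinase in Escherichia coli cells against a fixed T5 target plasmid.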
